From patent publication US20090170886A1 (Pfizer Inc, priority 2005, published 2009)
Read-outs that look alike come from different tables or passages of the source.

Tested on: sebum production in ear sebaceous glands of male Syrian hamsters
Assay: Animal Model for Inhibition of Sebum Production (hamster ear, HPLC of sebum lipids)
Format: in vivo, Syrian hamster
Conditions: Mesocricetus auratus, 672 h, 4 weeks; for inhibition in vivo at 3 %: 3% topical twice daily; for inhibition in vivo at 1 %: 1% topical twice daily; for inhibition in vivo at 1.5 %: 1.5% topical twice daily
Experimental: Luderschmidt et al. describes an animal model for testing whether compounds are capable of modulating sebum secretion, Arch. Derm. Res., 258, 185-191 (1977). This model uses male Syrian hamsters, whose ears contain sebaceous glands. Based on binding data and cellular assay data, selected compounds were chosen for screening in this model. Those compounds included the products of Examples 1, 20, 81, 82, and 109.
Testing for sebum inhibition was carried out in the following manner. Male Syrian hamsters aged 9 to 10 weeks were introduced into the laboratory environment and acclimated for 2 weeks prior to use in the study. Each group consisted of 5 animals and run in parallel with vehicle and positive controls. Prior to administration, a sufficient quantity of each compound was dissolved in 1 mL of a solvent consisting of ethanol, transcutol, and propylene glycol ([…]) to achieve the final concentration specified in Table IV below.
Animals were dosed topically twice daily, five days a week, for 4 weeks. Each dose consisted of 25 micro liters of vehicle control or drug. The dose was applied to the ventral surfaces of both the right and left ears. All animals were sacrificed approximately 18-24 hours after the final dose. The right ears were collected from each animal and used for sebum analysis.
The ears were prepped for HPLC analysis in the following manner. One 8 mm distal biopsy punch was taken, just above the anatomical “V” mark in the ear to normalize the sample area. The punch was pulled apart. The ventral biopsy surface (the area where the topical dose was directly applied to the sebaceous glands) was retained for testing and the dorsal surface of the biopsy punch was discarded.
Tissue samples were blown with N2 gas and stored at −80° C. under nitrogen until HPLC analysis. In addition to ear samples, an aliquot of each drug and vehicle (at least 250 ul) was also stored at −80° C. for inclusion in the HPLC analysis.
HPLC analysis was carried out on an extract of the tissue sample. Tissue samples were contacted with 3 ml of solvent (a 4:1 admixture of 2,2,4-trimethylpentane and isopropyl alcohol). The mixture was shaken for 15 minutes and stored overnight at room temperature, protected from light. The next morning 1 milliliter of water was added to the sample and shaken for 15 minutes. The sample was then centrifuged at approximately 1500 rpm for 15 minutes. Two ml of the organic phase (top layer) was transferred to a glass vial, dried at 37° C., under nitrogen, for approximately 1 hour, and then lyophilized for approximately 48 hours. The samples were then removed from the lyophilizer and each vial was reconstituted with 600 μl of solvent A (trimethylpentane/tetrahydrofuran (99:1)). The samples were then recapped and vortexed for 5 minutes.
Two hundred (200) μl of each sample was then transferred to a pre-labeled 200 μl HPLC vial with 200 μL glass inserts. The HPLC vials were placed in the autosampler tray for the Agilent 1100 series HPLC unit. The Agilent 1100 HPLC system consisted of a thermostated autosampler, a quarternary pump, a column heater, and an A/D interface module. All components were controlled by Agilent ChemStation software. A Waters Spherisorb S3W 4.6×100 mm analytical column was maintained at 30° C. by the Agilent column heater unit.
The HPLC autosampler was programmed to maintain the sample temperature at 20° C. throughout the run.
Ten (10) uL of each sample was injected in triplicate into the column. Two solvents were used for the solvent gradient. Solvent A was an admixture of trimethylpentane and tetrahydrofuran (99:1). Solvent B was ethylacetate. The gradient utilized is described in the table below: […]
The Sedex 75 Evaporative Light Scattering Detector (ELSD) was operated at 45° C. with a gain of 5, and N2 pressure maintained at 3.1 bar. Analog signal obtained by the instrument was sent to the Agilent A/D interface module where it was converted to a digital output. […]

[1] = cholesterol ester vs vehicle control, read-out: % CE reduction
[2] = wax ester vs vehicle control, read-out: % WE reduction

SMILES | inhibition in vivo at 1 % [1] [%] | inhibition in vivo at 1 % [2] [%] | also measured
CC(Oc1ccc(C#N)c(C(F)(F)F)c1)c1ccccc1 (racemic) [Example 1, 4-(1-Phenyl-ethoxy)-2-trifluoromethyl-benzonitrile] |  |  | inhibition in vivo at 3 % [1]: 52%; inhibition in vivo at 3 % [2]: 71%
CCCC(Oc1ccc(C#N)c(C(F)(F)F)c1)c1cccc(O)c1 (racemic) [Example 14, 4-[1-(3-Hydroxyphenyl)butoxy]-2-(trifluoromethyl)benzonitrile] |  |  | inhibition in vivo at 3 % [1]: 18%; inhibition in vivo at 3 % [2]: 38%
CCCC(Oc1ccc(C#N)c(C(F)(F)F)c1)c1cccc(O)c1 (single isomer, unassigned; (+)) [Example 15, (+)4-[1-(3-Hydroxyphenyl)butoxy]-2-(trifluoromethyl)benzonitrile] | -10 | -13 | 
CC(C)CC(Oc1ccc(C#N)c(C(F)(F)F)c1)c1cccc(O)c1 (single isomer, unassigned; (+)) [Example 21, (+)4-[1-(3-Hydroxyphenyl)-3-methylbutoxy]-2-(trifluoromethyl)benzonitrile] | 7 | 19 | 
CC(Oc1ccc(C#N)c(C(F)(F)F)c1)c1cncc(O)c1 (single isomer, unassigned; (+)) [Example 74, (+)4-[1-(5-Hydroxypyridin-3-yl)ethoxy]-2-(trifluoromethyl)benzonitrile] | 21 | 24 | 
CC(Oc1ccc(C#N)c(C(F)(F)F)c1)c1cccc(O)c1 (single isomer, unassigned; (-)) [Example 9, (−)-4-[1-(3-Hydroxyphenyl)ethoxy]-2-(trifluoromethyl)benzonitrile] |  |  | inhibition in vivo at 3 % [1]: 38%; inhibition in vivo at 3 % [2]: 52%
C=CCC(Oc1ccc(C#N)c(C(F)(F)F)c1)c1cccc(O)c1 (single isomer, unassigned; (-)) [Example 19, (−)4-{[1-(3-Hydroxyphenyl)but-3-enyl]oxy}-2-(trifluoromethyl)benzonitrile] | 6 | 13 | 
N#Cc1ccc(OCc2cccc(O)c2)cc1C(F)(F)F [Example 6, 4-[(3-Hydroxybenzyl)oxy]-2-(trifluoromethyl)benzonitrile] |  |  | inhibition in vivo at 1.5 % [1]: 25%; inhibition in vivo at 1.5 % [2]: 40%
CCC(Oc1ccc(C#N)c(C(F)(F)F)c1)c1ccccn1 (stereo not drawn) [Example 79, 4-(1-Pyridin^−2-yl-propoxy)-2-trifluoromethyl-benzonitrile] | 20 | 27 | 
COc1cccc(C(C)Oc2ccc(C#N)c(C(F)(F)F)c2)n1 (stereo not drawn) [Example 80, 4-[1-(6-Methoxy-pyridin-2-yl)-ethoxy]-2-trifluoromethyl-benzonitrile] | 39 | 50 | 
CC(C)CC(Oc1ccc(C#N)c(C(F)(F)F)c1)c1cccnc1 (stereo not drawn) [Example 88, 4-(3-Methyl-1-pyridin-3-yl-butoxy)-2-trifluoromethyl-benzonitrile] | 17 | 25 | 
Cc1ccc(C(CC(C)C)Oc2ccc(C#N)c(C(F)(F)F)c2)cn1 (stereo not drawn) [Example 89, 4-[3-Methyl-1-(6-methyl-pyridin-3-yl)-butoxy]-2-trifluoromethyl-benzonitrile] | 21 | 35 | 
